Patent EP4595972A1, “PEPTIDE FOR TREATING OR PREVENTING 4R TAUOPATHY” (GemVax & KAEL Co., Ltd., priority 2022, dated 2024)

Columns and labels:
mouse Tau (mTau) = assay: Tau immunoblot of brain lysate, soluble fraction, mTau; type: in vivo; settings: LMTM 15 mg/kg oral vs. vehicle, decrease (in parentheses)
Experimental: • (1) After completing administration, the mice of TauP301L-BiFC mouse model were anesthetized, followed by preparing heart laparotomy. • (2) Saline was introduced to the heart of each mouse in the TauP301L-BiFC mouse model, followed by removing vivo blood using a perfusion pump machine. • (3) After removing the blood, the brain was extracted and weighed. • (4) 1 mL RIPA buffer (w/protease/phosphatase inhibitor cocktail) was added to the extracted brain, followed by homogenization. • (5) After moving the homogenized brain lysate to an ep-tube, it was subjected to incubation in 4°C orbital shaker for 2 hours. • (6) After centrifugation at 4°C with a speed of 13,000 rpm for 20 minutes, the supernatant (soluble fraction) was collected in a new ep-tube and stored at -80°C • (7) In order to prepare an immunoblot sample, the concentration of a soluble fraction sample was quantified by Bradford protein quantification method. • (8) To each sample, RIPA buffer and 4X SDS Laemmli sample buffer (w/ 2.5% β-mercaptoethanol for reducing condition) were added to reach a final concentration of 2 mg/mL. • (9) The sample was boiled at 97°C for 5 minutes. […]

total tau (Tau5) = assay: Tau immunoblot of brain lysate, insoluble fraction, total tau; type: in vivo, mouse; settings: LMTM 15 mg/kg oral vs. vehicle; decrease (in parentheses)
Experimental: • (1) Pellets remaining after moving the supernatant (soluble fraction) were dispersed in 1 mL of 1M sucrose, DNase I (conc. 1 mg/mL) in RIPA buffer. • (2) After centrifugation at 4°C with a speed of 13,000 rpm for 20 minutes, the supernatant was removed. • (3) After resuspension of pellets in 2% SDS solution (1 mL per gram of tissue), the mixture was subjected to incubation at room temperature for 1 hour. • (4) After centrifugation at room temperature with a speed of 13,000 rpm for 1 minute, the supernatant (insoluble fraction) was collected and moved to a new ep-tube, and the same amount of 2X SDS Laemmli sample buffer (w/ 2.5% β-mercaptoethanol for reducing condition) was added thereto. • (5) The sample was boiled at 97°C for 5 minutes. […]

**Q.** Which results are given for CN(C)c1ccc2c(c1)Sc1cc(N(C)C)ccc1N2.CS(=O)(=O)O.CS(=O)(=O)O [LMTM]?
**A.** Soluble fraction, Phosphorylated tau, mTau (pS199) (mouse Tau (mTau); ***p<0.001): (34%)** *; Soluble fraction, Total tau, mTau (mouse Tau (mTau); **p<0.01): (24%)**; Soluble fraction, Phosphorylated tau, mTau (pS396) (mouse Tau (mTau); *p<0.05): (27%)*; Insoluble fraction, Total tau (total tau (Tau5)): (42%)
